Measured values reported in patent US11117888B2, “Irreversible inhibitors of pyruvate kinase M2 and the use thereof” (China Medical University, priority 2020, dated 2021).

Legend:
[1] = Incubation with free cysteine, mass spectral analysis; format: physicochemical; details: stoichiometric amount of free cysteine in solution
Description: In an effort to develop irreversible kinase inhibitors, we chose the core structures of several published kinase inhibitors to couple with a propiolyl moiety, which could act as an electrophilic warhead to irreversibly modify the cysteine residues of target proteins.

[2] = tested on: LNCaP prostate cancer cells; test: MTT cell viability assay, LNCaP; format: cell-based; details: Homo sapiens, 24 hours
Description: Cell lines, cell culture, biochemical reagents, and antibodies. MiaPaCa-2, AsPC-1, and Panc-1 human pancreatic cancer cells, MCF-7 and MDA-MB-231 breast cancer cells, SCC4 and SCC2059 oral cancer cells, PC-3 and LNCaP prostate cancer cells, H157, H460, H1975, PC-9 and H1650 lung cancer cells were obtained from the American Type Culture Collection (ATCC, Manassas, Va.). All these cells were maintained in recommended growth medium (RPMI 1640 or DMEM) supplemented with 10% fetal bovine serum (FBS) (Invitrogen, Carlsbad, Calif., USA) and antibiotics at 37° C. in a humidified incubator containing 5% CO2. For SILAC experiments, PC-9 cells were grown in SILAC DMEM medium (Thermo Fisher) supplemented with 10% dialyzed FBS and 100 μg/mL each of unlabeled L-arginine and L-lysine (light medium) or ^13C/^15N stable isotope-labeled L-arginine and L-lysine (heavy medium). […]
Cell viability assays. Drug effects on cell viability was assessed by 3-(4,5-dimethylthiazol-2-yl)-2,5-diphenyltetrazolium bromide ([…]) assays. […] The medium was then removed from each well and replaced with DMSO to dissolve the reduced MTT dye for subsequent colorimetric measurement of absorbance at 560 nm. Cell viabilities are expressed as percentages of viable cells relative to the corresponding vehicle-treated control group.

PKM2 = PKM2 (Homo sapiens, UniProt P14618); test: Gel-based ABPP competition for PKM2 binding in PC-9 cells; parameters: PC-9 cells were pre-incubated with 1 μM compound 1 for 1 hour, and treated with compound 2; endogenous in cells; host or cells: PC-9 cells; details: 1 μM compound 1, 1 hour, Western blot
PKM2, sequence (P14618 whole entry): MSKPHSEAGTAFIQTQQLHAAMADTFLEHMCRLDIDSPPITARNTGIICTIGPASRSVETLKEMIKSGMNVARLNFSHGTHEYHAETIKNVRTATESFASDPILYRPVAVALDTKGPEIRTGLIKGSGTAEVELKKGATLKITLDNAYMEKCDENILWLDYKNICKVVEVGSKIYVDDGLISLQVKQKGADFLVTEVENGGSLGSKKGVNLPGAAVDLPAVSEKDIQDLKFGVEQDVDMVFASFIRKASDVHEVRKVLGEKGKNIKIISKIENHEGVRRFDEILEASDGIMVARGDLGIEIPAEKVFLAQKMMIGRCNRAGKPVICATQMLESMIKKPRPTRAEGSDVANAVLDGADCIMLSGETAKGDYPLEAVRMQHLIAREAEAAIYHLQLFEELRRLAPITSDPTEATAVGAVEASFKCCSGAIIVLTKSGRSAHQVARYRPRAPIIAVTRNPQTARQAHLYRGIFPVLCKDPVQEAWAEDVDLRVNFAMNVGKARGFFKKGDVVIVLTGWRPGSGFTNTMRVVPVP
Procedure: As this cell-based kinase assay could not rule out the involvement of PKM1, we examined the abilities of compound 1 to inhibit the kinase activity of recombinant PKM2 (SAE0021, Sigma-Aldrich) versus recombinant PKM1 (SRP0415, Sigma-Aldrich) using a commercial PKM assay kit. […] In brief, PC-9 cells were exposed to different concentrations of compound 2 in the presence of compound 1 (1 μM) for 1 hour, lysed, and the cell lysates were treated with biotin-azide, followed by streptavidin bead pulldown under the aforementioned conditions. […] The antigen of compound 1 was prepared by coupling this small molecule with cysteine residues of ovalbumin, which was then used for immunization in guinea pigs.
Gel-based ABPP. PC-9 cells (2×10^6) were seeded in DMEM growth medium in 10-cm plates. After overnight incubation, the growth medium was replaced with fresh medium, followed by the addition of 1 μM compound 1 or DMSO control. After 1 hour, the ABPP probe compound 2 at 0.5, 1 and 2 μM was then added, and incubated at 37° C. for an additional 1 hour. The cell lysates were subjected to copper-catalyzed Click reaction, and biotin-tagged proteins were treated with 50 μL of streptavidin-coupled magnetic beads for 16 hours at 4° C. After incubation, cell lysates were washed by PBS containing 0.5% SDS three times to remove nonspecific binding. […]

- IC50 [2]: > 2000 nM
SMILES: C#CC(=O)Nc1ccc(-n2nc(CCC(=O)NC)cc2-c2ccc(-c3ccc(C(F)(F)F)cc3)cc2)cc1 [compound 1, N-(4-(3-(3-(Methylamino)-3-oxopropyl)-5-(4′-(trifluoromethyl)-[1,1′-biphenyl]-4-yl)-1H-pyrazol-1-yl)phenyl)propiolamide]
- adduct formation with free cysteine [1]: formation of a covalent 1-cysteine adduct
- competition with ABPP probe compound 2 for PKM2 binding (PKM2): binding of the ABPP probe to PKM2 was attenuated
